pIC50: −log10 of the molar value.
Legend:
K562 [1] = experiment: Induction of apoptosis in human K562 cells assessed as fold increase in caspase 3/7 activity at 0.32 uM (reference value: 1.03 +/- 0.02); format: functional
K562 [2] = experiment: Induction of necrosis in human K562 cells assessed as LDH release at 0.64 uM (reference value: 0.20+/- 0.02%); format: functional
SNB-19 = experiment: Cytotoxicity against human SNB-19 cells assessed as cell growth inhibition; format: functional, cell-based
K562 [3] = experiment: Induction of apoptosis in human K562 cells assessed as fold increase in caspase 3/7 activity at 0.64 uM (reference value: 1.03 +/- 0.02); format: functional
CAKI-1 = experiment: Cytotoxicity against human CAKI-1 cells assessed as cell growth inhibition; format: functional, cell-based
A549 = experiment: Cytotoxicity against human A549 cells assessed as cell growth inhibition; format: functional, cell-based
[4] = Selectivity index, ratio of IC50 for cytotoxicity against human F180 cells to IC50 for cytotoxicity against human SK-MEL-5 cells
[5] = Selectivity index, ratio of IC50 for cytotoxicity against human hTERT-HME1 cells to IC50 for cytotoxicity against human Hs-578T cells
Carbonic anhydrase 12 [6] = molecular target: T1, Carbonic anhydrase 12 (Homo sapiens, UniProt O43570); experiment: Inhibition of Carbonic anhydrase 12 (unknown origin) at 100 uM using p-nitrophenyl acetate as substrate preincubated for 10 mins followed by substrate addition and measured after 30 mins by microplate reader method relative to control; details: time 40.0 min
[7] = Selectivity index, ratio of IC50 for cytotoxicity against human F180 cells to IC50 for cytotoxicity against human UACC-257 cells
Carbonic anhydrase 2 [8] = molecular target: T2, Carbonic anhydrase 2 (Homo sapiens, UniProt P00918); experiment: Inhibition of Carbonic anhydrase 2 (unknown origin) using p-nitrophenyl acetate as substrate preincubated for 10 mins followed by substrate addition and measured after 30 mins by microplate reader method
K562 [9] = experiment: Induction of necrosis in human K562 cells assessed as LDH release at 0.32 uM (reference value: 0.20+/- 0.02%); format: functional
[10] = system: Panel NCI-60 (60 carcinoma cell lines); experiment: Cytotoxicity against human Panel NCI-60 (60 carcinoma cell lines) assessed as mean growth inhibition; format: functional
[11] = Selectivity index, ratio of IC50 for cytotoxicity against human hTERT-HME1 cells to IC50 for cytotoxicity against human MCF7 cells; format: toxicity, cell-based; details: hTERT-HME1 cells and MCF7 cells, read-out: Ratio IC50
K562 [12] = experiment: Induction of necrosis in human K562 cells assessed as LDH release at 0.58 uM (reference value: 0.20+/- 0.02%); format: functional
CCRF-CEM = experiment: Cytotoxicity against human CCRF-CEM cells assessed as cell growth inhibition; format: functional, cell-based
K562 [13] = experiment: Induction of necrosis in human K562 cells assessed as LDH release at 1.16 uM (reference value: 0.20+/- 0.02%); format: functional
[14] = Selectivity index, ratio of IC50 for cytotoxicity against human F180 cells to IC50 for cytotoxicity against human UACC-62 cells
MOLT-4 = experiment: Cytotoxicity against human MOLT-4 cells assessed as cell growth inhibition; format: functional, cell-based
K562 [15] = experiment: Induction of apoptosis in human K562 cells assessed as fold increase in caspase 3/7 activity at 0.58 uM (reference value: 1.03 +/- 0.02); format: functional
Carbonic anhydrase 2 [16] = molecular target: T2, Carbonic anhydrase 2; experiment: Inhibition of Carbonic anhydrase 2 (unknown origin) at 100 uM using p-nitrophenyl acetate as substrate preincubated for 10 mins followed by substrate addition and measured after 30 mins by microplate reader method relative to control; details: time 40.0 min
Carbonic anhydrase 12 [17] = molecular target: T1, Carbonic anhydrase 12; experiment: Inhibition of Carbonic anhydrase 12 (unknown origin) using p-nitrophenyl acetate as substrate preincubated for 10 mins followed by substrate addition and measured after 30 mins by microplate reader method
[18] = Selectivity index, ratio of IC50 for cytotoxicity against human F180 cells to IC50 for cytotoxicity against human SK-MEL-28 cells
K562 [19] = experiment: Induction of apoptosis in human K562 cells assessed as fold increase in caspase 3/7 activity at 1.16 uM (reference value: 1.03 +/- 0.02); format: functional
OVCAR-3 = experiment: Cytotoxicity against human OVCAR-3 cells assessed as cell growth inhibition; format: functional, cell-based

T1 sequence (O43570 whole entry): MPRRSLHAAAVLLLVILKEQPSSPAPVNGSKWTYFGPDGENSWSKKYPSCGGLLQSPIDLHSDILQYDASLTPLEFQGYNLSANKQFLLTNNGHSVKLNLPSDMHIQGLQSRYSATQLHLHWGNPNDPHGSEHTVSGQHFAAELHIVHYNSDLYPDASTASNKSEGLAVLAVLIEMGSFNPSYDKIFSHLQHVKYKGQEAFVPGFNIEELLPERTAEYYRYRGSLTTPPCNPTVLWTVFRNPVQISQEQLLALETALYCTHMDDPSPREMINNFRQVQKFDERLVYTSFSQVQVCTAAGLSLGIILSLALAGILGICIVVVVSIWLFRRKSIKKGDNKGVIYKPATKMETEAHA

Structure (SMILES): O=C(Nc1ccc(OS(=O)(=O)c2ccccc2)cc1)C12CC3CC(CC(C3)C1)C2
- fold change (FC) (K562 [1]): 2.05
- Activity (K562 [2]): 2.3%
- pIC50 (SNB-19): < 4.00
- fold change (FC) (K562 [3]): 3.7
- pIC50 (CAKI-1): 5.15
- pIC50 (A549): 5.16
- Ratio IC50 [4]: 3.12
- Ratio IC50 [5]: 6.8
- inhibition (Carbonic anhydrase 12 [6]): 18.1%
- Ratio IC50 [7]: 3.7
- pIC50 (Carbonic anhydrase 2 [8]): 6.06
- Activity (K562 [9]): 0.5%
- inhibition (INH) [10]: 44.5%

Structure (SMILES): O=C(Nc1ccc(OS(=O)(=O)c2ccc(F)cc2)cc1)C12CC3CC(CC(C3)C1)C2
- selectivity ratio [11]: 84.7
- Activity (K562 [12]): 1.8%
- pIC50 (SNB-19): 4.80
- pIC50 (CCRF-CEM): 5.43
- Activity (K562 [13]): 3.4%
- Ratio IC50 [14]: 15.9
- pIC50 (A549): 5.64
- pIC50 (MOLT-4): 5.30
- fold change (FC) (K562 [15]): 1.89
- inhibition (Carbonic anhydrase 2 [16]): 39.6%
- pIC50 (Carbonic anhydrase 12 [17]): 6.17
- Ratio IC50 [18]: 1.7
- fold change (FC) (K562 [19]): 2.72
- pIC50 (OVCAR-3): 5.22

Reference: ChEMBL document CHEMBL5331074, “Design and synthesis of new adamantyl derivatives as promising antiproliferative agents” (Eur J Med Chem, 2023)
